Legend:
HCV = conditions: RBV monotherapy; cited from earlier work
[1] = test system: chronic Hepatitis C genotype 1 infection; assay: Study NV21075 Phase 2 clinical study, virological response (undetectable HCV RNA) during the first 12 weeks of treatment; format: in vivo, human patients; conditions: for percentage of patients with undetectable HCV RNA levels at the end of 12 weeks of treatment: limit of detection 15 IU/mL, preliminary interim analysis
From the text: Study NV21075 was a randomized double-blinded multicenter Phase 2 clinical study to evaluate the efficacy and safety of danoprevir in combination with peginterferon alfa 2a and ribavirin (triple therapy combination) when dosed for twelve weeks in treatment-naïve patients with chronic Hepatitis C genotype 1 infection as compared to the currently approved combination of peginterferon alfa 2a and ribavirin (Standard of Care or SOC). Patients enrolled in Study NV21075 were randomized into one of four treatment groups (FIG. 1) (approximately 60 patients for Groups A-C, approximately 30 patients for Group D). In the response-guided treatment groups (as described below), patients with an extended RVR (eRVR, defined as undetectable HCV RNA from […]) stopped all therapy at Week 24.
Patients received double blinded experimental treatment with danoprevir at 300 mg TID (Group A), 600 mg BID (Group B), or 900 mg BID (Group C) and standard of care treatment (SOC, Pegasys 180 μg sc qw+Copegus 1000 mg (<75 kg) or 1200 mg (≧75 kg) po qd) for 12 weeks, followed by SOC for 12 weeks. Patients who achieve an RVR, defined as undetectable HCV RNA at week 4, and remain undetectable through week 22 (i.e. achieving eRVR) stopped all treatment at week 24. […] Treatment Group D: Patients received double blinded placebo treatment for 12 weeks, followed by SOC for 36 weeks for a total duration of 48 weeks.
For the interim analysis of NV21075, efficacy during the first 12 weeks of treatment was measured by the percentage of patients with virological response (undetectable HCV RNA as measured by the Roche Cobas® AmpliPrep/Cobas® Taqman® HCV Test v1.0 [limit of detection 15 IU/mL]). Patients were considered non-responders at a scheduled visit if they had missing data, which may have been due to an assessment that was missed or fell outside of the allowable window for that visit, or an early withdrawal from treatment with a missing follow-up assessment.

NC(=O)c1ncn([C@@H]2O[C@H](CO)[C@@H](O)[C@H]2O)n1 [ribavirin, 1-((2R,3R,4S,5R)-3,4-Dihydroxy-5-hydroxymethyl-tetrahydro-furan-2-yl)-1H-[1,2,4]triazole-3-carboxylic acid amide]
effect on the replication of HCV (HCV): little or no effect

CC(C)(C)OC(=O)N[C@H]1CCCCC/C=C\[C@@H]2C[C@@]2(C(=O)NS(=O)(=O)C2CC2)NC(=O)[C@@H]2C[C@@H](OC(=O)N3Cc4cccc(F)c4C3)CN2C1=O [Danoprevir, 4-Fluoro-1,3-dihydro-isoindole-2-carboxylic acid (Z)-(1S,4R,6S,14S,18R)-14-tert-butoxycarbonylamino-4-cyclopropanesulfonylaminocarbonyl-2,15-dioxo-3,16-diaza-tricyclo[14.3.0.0*4,6*]nonadec-7-en-18-yl ester]
percentage of patients with undetectable HCV RNA levels at the end of 12 weeks of treatment ([1]; Treatment Group A: danoprevir 300 mg TID plus SOC): 88.1%
percentage of patients with undetectable HCV RNA levels at the end of 12 weeks of treatment ([1]; Treatment Group B: danoprevir 600 mg BID plus SOC): 89.2%
percentage of patients with undetectable HCV RNA levels at the end of 12 weeks of treatment ([1]; Treatment Group C: danoprevir 900 mg BID plus SOC): 92.0%
change in mean HCV RNA levels ([1]; danoprevir plus SOC, within the first 2 to 4 weeks of treatment, remained lower than SOC up to Week 12): precipitous decline

— patent publication US20130137084A1, “Single Nucleotide Polymorphism on Chromosome 15 That Predicts HCV Treatment Responses” (Roche Molecular Systems, Inc., priority 2011, published 2013)
